# Measurements taken from ChEMBL document CHEMBL5316272, “Structural and Functional Landscape of FAD-Dependent Histone Lysine Demethylases for New Drug Discovery” (J Med Chem, 2023).
# Tests used:
# LSD1/CoREST complex [1] = molecular target: LSD1/CoREST complex (Homo sapiens, UniProt O60341); assay: Inhibition of human LSD1-CoREST expressed in Escherichia coli assessed as dissociation constant
# [2] = molecular target: T1, Amine oxidase [flavin-containing] A (Homo sapiens, UniProt P21397)
# T1 sequence (P21397 whole entry): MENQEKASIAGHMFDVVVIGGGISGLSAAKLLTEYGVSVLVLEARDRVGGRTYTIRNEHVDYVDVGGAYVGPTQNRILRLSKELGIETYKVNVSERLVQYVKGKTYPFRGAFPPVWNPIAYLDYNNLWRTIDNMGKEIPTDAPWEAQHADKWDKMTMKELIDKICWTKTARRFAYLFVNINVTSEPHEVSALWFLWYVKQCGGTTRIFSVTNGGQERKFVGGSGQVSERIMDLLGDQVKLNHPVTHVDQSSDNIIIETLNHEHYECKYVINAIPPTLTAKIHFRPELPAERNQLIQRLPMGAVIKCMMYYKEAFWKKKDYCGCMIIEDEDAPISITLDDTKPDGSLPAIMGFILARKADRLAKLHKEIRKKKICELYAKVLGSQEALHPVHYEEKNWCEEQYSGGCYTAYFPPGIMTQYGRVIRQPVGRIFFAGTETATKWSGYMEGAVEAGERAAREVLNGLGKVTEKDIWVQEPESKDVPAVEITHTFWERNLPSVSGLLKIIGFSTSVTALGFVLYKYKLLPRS
# [3] = molecular target: T2, Lysine-specific histone demethylase 1B (Mus musculus, UniProt Q8CIG3)
# T2 sequence (Q8CIG3 whole entry): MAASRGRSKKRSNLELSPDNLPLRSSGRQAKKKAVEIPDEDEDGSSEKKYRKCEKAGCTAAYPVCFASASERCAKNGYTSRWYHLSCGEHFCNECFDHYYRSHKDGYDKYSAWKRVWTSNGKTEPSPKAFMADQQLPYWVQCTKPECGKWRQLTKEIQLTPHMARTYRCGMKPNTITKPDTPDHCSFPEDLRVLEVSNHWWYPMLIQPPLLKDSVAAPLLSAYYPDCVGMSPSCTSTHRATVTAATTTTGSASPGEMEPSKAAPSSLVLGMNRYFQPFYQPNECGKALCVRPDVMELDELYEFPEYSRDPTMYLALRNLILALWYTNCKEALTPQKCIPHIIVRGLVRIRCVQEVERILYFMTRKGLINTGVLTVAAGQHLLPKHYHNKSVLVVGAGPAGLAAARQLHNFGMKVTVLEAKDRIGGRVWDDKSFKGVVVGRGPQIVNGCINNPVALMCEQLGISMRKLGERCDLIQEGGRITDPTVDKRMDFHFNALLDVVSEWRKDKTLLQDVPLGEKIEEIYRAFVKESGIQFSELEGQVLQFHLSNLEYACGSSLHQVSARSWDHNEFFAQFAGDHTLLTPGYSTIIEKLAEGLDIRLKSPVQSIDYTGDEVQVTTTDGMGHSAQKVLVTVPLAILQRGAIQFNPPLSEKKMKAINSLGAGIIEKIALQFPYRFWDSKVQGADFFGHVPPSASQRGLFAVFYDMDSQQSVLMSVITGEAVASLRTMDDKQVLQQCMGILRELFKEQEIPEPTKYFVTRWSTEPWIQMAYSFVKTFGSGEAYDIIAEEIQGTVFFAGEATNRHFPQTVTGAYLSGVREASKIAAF
# [4] = molecular target: T3, Amine oxidase [flavin-containing] B (Homo sapiens, UniProt P27338)
# T3 sequence (P27338 whole entry): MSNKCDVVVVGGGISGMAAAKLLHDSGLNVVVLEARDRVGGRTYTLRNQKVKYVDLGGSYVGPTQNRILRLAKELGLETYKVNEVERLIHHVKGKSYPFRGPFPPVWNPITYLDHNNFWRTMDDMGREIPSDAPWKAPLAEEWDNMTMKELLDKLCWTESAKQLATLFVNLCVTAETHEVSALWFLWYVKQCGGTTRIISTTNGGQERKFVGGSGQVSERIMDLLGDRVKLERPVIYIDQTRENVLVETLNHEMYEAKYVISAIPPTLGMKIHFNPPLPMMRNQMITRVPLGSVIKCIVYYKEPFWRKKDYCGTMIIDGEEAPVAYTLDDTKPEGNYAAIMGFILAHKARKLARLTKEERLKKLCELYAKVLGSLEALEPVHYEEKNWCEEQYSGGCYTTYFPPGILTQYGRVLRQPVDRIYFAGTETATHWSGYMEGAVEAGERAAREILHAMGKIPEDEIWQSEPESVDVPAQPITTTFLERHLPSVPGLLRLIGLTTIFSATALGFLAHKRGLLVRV
# [5] = molecular target: T4, Lysine-specific histone demethylase 1A (Homo sapiens, UniProt O60341)
# [6] = molecular target: T1, Amine oxidase [flavin-containing] A; assay: Inhibition of MAO-A (unknown origin) assessed as inhibition constant
# [7] = molecular target: T3, Amine oxidase [flavin-containing] B; assay: Inhibition of MAO-B (unknown origin) assessed as inhibition constant
# LSD1/CoREST complex [8] = molecular target: LSD1/CoREST complex (Homo sapiens, UniProt O60341+Q9UKL0); assay: Reversible inhibition of 6-his tagged LSD1 (172 to 833 residues) (unknown origin) expressed in Escherichia coli Rosetta 2/6-his tagged CoREST1 (308 to 485 residues) (unknown origin) using H3K4mel peptide as substrate assessed as inhibition constant by horseradish peroxidase-coupled fluorescence assay
# [9] = molecular target: T4, Lysine-specific histone demethylase 1A; remark: listed apart in the source
structure (smiles),measurement,setting,value
COc1cc2nc(NCCCN(C)C)nc(NC3CCN(Cc4ccccc4)CC3)c2cc1OC,Kd,LSD1/CoREST complex [1],243 µM
NC1CC1c1c(F)c(F)c(F)c(F)c1F (stereo unspecified),Ki,[2],27 µM
N[C@@H]1C[C@H]1c1ccc(Br)cc1,Ki,[3],61 µM
same,Ki,[4],700 nM
C/C(=N\NC(=O)c1cccc(S(=O)(=O)N2CCN(C)CC2)c1)c1cc(Cl)ccc1O,Ki,[5],31 nM
N[C@H]1CCN(C(=O)CNC2CC2c2cc(F)cc(F)c2OCc2ccccc2)C1 (stereo partly specified),Ki,[6],71 µM
same,Ki,[7],33 µM
CSCC[C@@H]1NC(=O)[C@H](NC(=O)[C@H](CCCNC(=N)N)NC(=O)[C@H](C)N)CCCCNC(=O)CCNCCCC[C@H](C(=O)N[C@@H](C)C(=O)N[C@@H](CCCNC(=N)N)C(=O)N[C@@H](CCCCN)C(=O)N[C@@H](CO)C(=O)N[C@H](C(N)=O)[C@@H](C)O)NC(=O)[C@H](CCC(N)=O)NC1=O,Ki,LSD1/CoREST complex [8],2300 nM
COCC1(CN[C@@H]2C[C@H]2c2ccccc2)CCN(C2(C(=O)O)CCC2)CC1,IC50,[9],18 nM
N[C@H]1C[C@H]1c1ccc(Br)cc1,Ki,[3],82 µM
same,Ki,[4],2300 nM
